Source: US10105357B2, “Indication of antibiotic drugs for preparation of cancer inhibition pharmaceutical composition” (LAUNX BIOMEDICAL CO., LTD., priority 2014, dated 2018)
Read-outs that look alike come from different tables or passages of the source.

Assays:
Format in all cases: cell-based, human
[1] = tested on: HI650 (Lung Adenocarcinoma); test: Cell viability analysis, lung cancer HI650; conditions: for viability at 10 µM: Homo sapiens, NCI-H1650, 72 h
[2] = tested on: HepG2 (Hepatocellular Carcinoma); test: Cell viability analysis, hepatic cancer HepG2; conditions: for viability at 10 µM: Homo sapiens, HepG2, 72 h
[3] = tested on: LoVo (Colorectal Adenocarcinoma); test: Cell viability analysis, colon cancer LoVo; conditions: for viability at 10 µM: Homo sapiens, LoVo, 72 h, read-out: cell viability (survival rate), LoVo, drug 10 μM, 72 hours, WST-1, OD450 nm
[4] = tested on: PC3 (p53−) (Prostate Adenocarcinoma); test: Cell viability analysis, prostate cancer PC3; conditions: for viability at 10 µM: Homo sapiens, 72 h
[5] = tested on: MKN-45 (Gastric Adenocarcinoma); test: Cell viability analysis, gastric cancer MKN-45; conditions: for viability at 10 µM: Homo sapiens, MKN-45, 72 h
[6] = tested on: A549 (Lung Adenocarcinoma); test: Cell viability analysis, lung cancer A549; conditions: for viability at 10 µM: Homo sapiens, A549, 72 h
[7] = tested on: MCF7 (Mammary Gland, Adenocarcinoma); test: Cell viability analysis, breast cancer MCF7; conditions: for viability at 10 µM: Homo sapiens, MCF7, 72 h
[8] = tested on: AGS (Gastric Adenocarcinoma); test: Cell viability analysis, gastric cancer AGS; conditions: for viability at 10 µM: Homo sapiens, 72 h
[9] = tested on: A375 (Amelanotic Melanoma); test: Cell viability analysis, skin cancer A375; conditions: for viability at 10 µM: Homo sapiens, A-375, 72 h
[10] = tested on: HL-60 (Acute Promyelocytic Leukemia); test: Cell viability analysis, leukemia HL-60; conditions: for viability at 10 µM: Homo sapiens, HL-60, 72 h
[11] = tested on: TSGH-8301 (Urinary Bladder Carcinoma); test: Cell viability analysis, bladder cancer TSGH-8301; conditions: for viability at 10 µM: Homo sapiens, 72 h
cancer cell lines = test: Cell viability analysis (WST-1) on cancer cell lines; conditions: drug 10 μM, 72 hours, WST-1; Table 3
[12] = tested on: HeLa (Cervix Adenocarcinoma); test: Cell viability analysis, cervical cancer HeLa; conditions: for viability at 10 µM: Homo sapiens, HeLa, 72 h
[13] = drug 10 μM, 72 hours, WST-1, OD450 nm, read-out: cell viability (survival rate), H1650
[14] = drug 10 μM, 72 hours, WST-1, OD450 nm, read-out: cell viability (survival rate), HepG2
[15] = drug 10 μM, 72 hours, WST-1, OD450 nm, read-out: cell viability (survival rate), PC3
[16] = drug 10 μM, 72 hours, WST-1, OD450 nm, read-out: cell viability (survival rate), MKN-45
[17] = drug 10 μM, 72 hours, WST-1, OD450 nm, read-out: cell viability (survival rate), A549
[18] = drug 10 μM, 72 hours, WST-1, OD450 nm, read-out: cell viability (survival rate), MCF7
[19] = drug 10 μM, 72 hours, WST-1, OD450 nm, read-out: cell viability (survival rate), AGS
[20] = drug 10 μM, 72 hours, WST-1, OD450 nm, read-out: cell viability (survival rate), A375
[21] = drug 10 μM, 72 hours, WST-1, OD450 nm, read-out: cell viability (survival rate), HL-60
[22] = drug 10 μM, 72 hours, WST-1, OD450 nm, read-out: cell viability (survival rate), TSGH
[23] = drug 10 μM, 72 hours, WST-1, OD450 nm, read-out: cell viability (survival rate), HeLa
[24] = read-out: cell viability (survival rate), H1650, drug 10 μM, 72 hours, WST-1, OD450 nm
[25] = read-out: cell viability (survival rate), HepG2, drug 10 μM, 72 hours, WST-1, OD450 nm
[26] = read-out: cell viability (survival rate), PC3, drug 10 μM, 72 hours, WST-1, OD450 nm
[27] = read-out: cell viability (survival rate), MKN-45, drug 10 μM, 72 hours, WST-1, OD450 nm
[28] = read-out: cell viability (survival rate), A549, drug 10 μM, 72 hours, WST-1, OD450 nm
[29] = read-out: cell viability (survival rate), MCF7, drug 10 μM, 72 hours, WST-1, OD450 nm
[30] = read-out: cell viability (survival rate), AGS, drug 10 μM, 72 hours, WST-1, OD450 nm
[31] = read-out: cell viability (survival rate), A375, drug 10 μM, 72 hours, WST-1, OD450 nm
[32] = read-out: cell viability (survival rate), HL-60, drug 10 μM, 72 hours, WST-1, OD450 nm
[33] = read-out: cell viability (survival rate), TSGH, drug 10 μM, 72 hours, WST-1, OD450 nm
[34] = read-out: cell viability (survival rate), HeLa, drug 10 μM, 72 hours, WST-1, OD450 nm

Compound: Cc1cn([C@H]2C=C[C@@H](CO)O2)c(=O)[nH]c1=O [Stavudine]
- viability at 10 µM [1, 13]: 50.2%
- viability at 10 µM [2, 14]: 97.1%
- viability at 10 µM [3]: 70.7%
- viability at 10 µM [4, 15]: 73.5%
- viability at 10 µM [5, 16]: 66.8%
- viability at 10 µM [6, 17]: 38.9%
- viability at 10 µM [7, 18]: 56.6%
- viability at 10 µM [8, 19]: 39.2%
- viability at 10 µM [9, 20]: 56.1%
- viability at 10 µM [10, 21]: 96%
- viability at 10 µM [11, 22]: 112%
- inhibition effect on different cancer cell lines (cancer cell lines): significant inhibition effect
- viability at 10 µM [12, 23]: 98.1%

Compound: Cc1ccnc2c1NC(=O)c1cccnc1N2C1CC1 [Nevirapine (Viramune), Nevirapine]
- viability at 10 µM [1, 13]: 89.7%
- viability at 10 µM [2, 14]: 85.5%
- viability at 10 µM [3]: 85.7%
- viability at 10 µM [4, 15]: 84.1%
- viability at 10 µM [5, 16]: 68.3%
- viability at 10 µM [6, 17]: 45.7%
- viability at 10 µM [7, 18]: 38.5%
- viability at 10 µM [8, 19]: 115%
- viability at 10 µM [9, 20]: 66.8%
- viability at 10 µM [10, 21]: 98.7%
- viability at 10 µM [11, 22]: 103%
- inhibition effect on different cancer cell lines (cancer cell lines): significant inhibition effect
- viability at 10 µM [12, 23]: 58.9%

Compound: C[C@@H](O)[C@H]1C(=O)N2C(C(=O)[O-])=C(SC3Cn4cnc[n+]4C3)[C@H](C)[C@H]12 (stereo partly shown) [Biapenem]
- viability at 10 µM [1, 24]: 42.2%
- viability at 10 µM [2, 25]: 66.4%
- viability at 10 µM [3]: 88.7%
- viability at 10 µM [4, 26]: 80.3%
- viability at 10 µM [5, 27]: 81.5%
- viability at 10 µM [6, 28]: 90.1%
- viability at 10 µM [7, 29]: 136%
- viability at 10 µM [8, 30]: 75.1%
- viability at 10 µM [9, 31]: 60.4%
- viability at 10 µM [10, 32]: 95.5%
- viability at 10 µM [11, 33]: 117%
- inhibition effect on different cancer cell lines (cancer cell lines): significant inhibition effect
- viability at 10 µM [12, 34]: 54%

Compound: Nc1nc2c(ncn2CCC(CO)CO)c(=O)[nH]1 [Penciclovir]
- viability at 10 µM [1, 24]: 71.5%
- viability at 10 µM [2, 25]: 95.7%
- viability at 10 µM [3]: 98.5%
- viability at 10 µM [4, 26]: 106%
- viability at 10 µM [5, 27]: 98.5%
- viability at 10 µM [6, 28]: 74.7%
- viability at 10 µM [7, 29]: 110%
- viability at 10 µM [8, 30]: 71%
- viability at 10 µM [9, 31]: 64.2%
- viability at 10 µM [10, 32]: 114%
- viability at 10 µM [11, 33]: 79.1%
- inhibition effect on different cancer cell lines (cancer cell lines): significant inhibition effect
- viability at 10 µM [12, 34]: 81.7%

Compound: [O-][n+]1ccccc1[S-].[O-][n+]1ccccc1[S-].[Zn+2] [Pyrithione zinc]
- cell viability (survival rate), H1650 [1]: 60.6
- cell viability (survival rate), HepG2 [2]: 70.4
- cell viability (survival rate), LoVo [3]: 45.5
- cell viability (survival rate), PC3 [4]: 24.3
- cell viability (survival rate), MKN-45 [5]: 57.4
- cell viability (survival rate), A549 [6]: 29.7
- cell viability (survival rate), MCF7 [7]: 51.8
- cell viability (survival rate), AGS [8]: 35.4
- cell viability (survival rate), A375 [9]: 27.1
- cell viability (survival rate), HL-60 [10]: 34.5
- cell viability (survival rate), TSGH [11]: 28.7
- inhibition effect on different cancer cell lines (cancer cell lines): significant inhibition effect
- cell viability (survival rate), HeLa [12]: 47.4

Compound: CC(N)C12CC3CC(CC(C3)C1)C2 (stereo not shown) [Rimantadine (Flumadine), Rimantadine]
- viability at 10 µM [1, 13]: 96.9%
- viability at 10 µM [2, 14]: 87.7%
- viability at 10 µM [3]: 95.7%
- viability at 10 µM [4, 15]: 91.3%
- viability at 10 µM [5, 16]: 82.3%
- viability at 10 µM [6, 17]: 111%
- viability at 10 µM [7, 18]: 97.1%
- viability at 10 µM [8, 19]: 90.8%
- viability at 10 µM [9, 20]: 70.3%
- viability at 10 µM [10, 21]: 107%
- viability at 10 µM [11, 22]: 126%
- inhibition effect on different cancer cell lines (cancer cell lines): significant inhibition effect
- viability at 10 µM [12, 23]: 71.1%

Compound: CCN1CCN(c2cc3c(cc2F)c(=O)c(C(=O)O)cn3C2CC2)CC1 [Enrofloxacin]
- viability at 10 µM [1, 24]: 44.5%
- viability at 10 µM [2, 25]: 77.2%
- viability at 10 µM [3]: 84.8%
- viability at 10 µM [4, 26]: 48.6%
- viability at 10 µM [5, 27]: 37.4%
- viability at 10 µM [6, 28]: 67.5%
- viability at 10 µM [7, 29]: 66.6%
- viability at 10 µM [8, 30]: 94.5%
- viability at 10 µM [9, 31]: 65.2%
- viability at 10 µM [10, 32]: 86.6%
- viability at 10 µM [11, 33]: 77.9%
- inhibition effect on different cancer cell lines (cancer cell lines): significant inhibition effect
- viability at 10 µM [12, 34]: 67%
